The target of this assay is T1, rat metabotropic glutamic acid receptor 7a (Rattus norvegicus, UniProt P35400).
T1 construct: expressed in transfected cells
As to the kind of experiment: Metabotropic glutamic acid receptor-antagonistic effect (Test Method 1, [Ca2+]i by FLIPR). In kind it is cell-based. The settings on record: CHO cells stably expressing rat metabotropic glutamic acid receptor 7a and Gα15, agonist 0.5 mM L-AP4, test compound given 5 minutes before agonist, [Ca2+]i with Fluo-3AM. The text has this: (Test Method 1) Metabotropic Glutamic Acid Receptor-Antagonistic Effect:
Using LIPOFECTAMINE (by Gibco BRL), CHO cells were transfected with a CDNA of rat metabotropic glutamic acid receptor 7a, which is described in J. Biol. Chem., N. Okamoto et al., Vol. 269, pp. 1231–1236, 1994, to give a cell strain capable of stably expressing rat metabotropic glutamic acid receptor 7a. The metabotropic glutamic acid receptor 7a-transfected CHO cells were further transfected with a Gα15 cDNA, which is describedin J. Biol. Chem., S. Offermanns, M. I. Simon, Vol. 270, pp. 15175–15180, 1995, to give a cell strain capable of stably expressing rat metabotropic glutamic acid receptor 7a and Gα15. The CHO cells capable of stably expressing metabotropic glutamic acid receptor 7a and Gα15 were incubated along with Fluo-3AM (final concentration 4 μM) at 37° C. for 1 hour, and then washed 4 times with an assay buffer (1×Hanks' salt with 2.5 mM probenecid and 20 mM HEPES (N-2-hydroxyethylpiperazine-N′-2-ethanesulfonic acid), and the resulting cells were assayed for [Ca^2+]i. For the determination of [Ca^2+]i, used was a fluorimetric imaging plate reader (FLIPR by Molecular Device). Concretely, using an agonist, 0.5 mM L-AP4, the capacity of the antagonistic substance was measured.
The Hanks' salt was prepared by 10-fold diluting a Hanks' balanced solution (Gibuco BRL 14065-056 10×). […]

Results on two molecules are retold here after patent US7053219B2, “Isoxazolopyridone derivatives and their use” (Banyu Pharmaceutical Co. Ltd., priority 2001, dated 2006).

What is called IC50 is the concentration that inhibits the measured activity by half. Lower therefore signals higher potency.

T1 sequence (P35400 35-915): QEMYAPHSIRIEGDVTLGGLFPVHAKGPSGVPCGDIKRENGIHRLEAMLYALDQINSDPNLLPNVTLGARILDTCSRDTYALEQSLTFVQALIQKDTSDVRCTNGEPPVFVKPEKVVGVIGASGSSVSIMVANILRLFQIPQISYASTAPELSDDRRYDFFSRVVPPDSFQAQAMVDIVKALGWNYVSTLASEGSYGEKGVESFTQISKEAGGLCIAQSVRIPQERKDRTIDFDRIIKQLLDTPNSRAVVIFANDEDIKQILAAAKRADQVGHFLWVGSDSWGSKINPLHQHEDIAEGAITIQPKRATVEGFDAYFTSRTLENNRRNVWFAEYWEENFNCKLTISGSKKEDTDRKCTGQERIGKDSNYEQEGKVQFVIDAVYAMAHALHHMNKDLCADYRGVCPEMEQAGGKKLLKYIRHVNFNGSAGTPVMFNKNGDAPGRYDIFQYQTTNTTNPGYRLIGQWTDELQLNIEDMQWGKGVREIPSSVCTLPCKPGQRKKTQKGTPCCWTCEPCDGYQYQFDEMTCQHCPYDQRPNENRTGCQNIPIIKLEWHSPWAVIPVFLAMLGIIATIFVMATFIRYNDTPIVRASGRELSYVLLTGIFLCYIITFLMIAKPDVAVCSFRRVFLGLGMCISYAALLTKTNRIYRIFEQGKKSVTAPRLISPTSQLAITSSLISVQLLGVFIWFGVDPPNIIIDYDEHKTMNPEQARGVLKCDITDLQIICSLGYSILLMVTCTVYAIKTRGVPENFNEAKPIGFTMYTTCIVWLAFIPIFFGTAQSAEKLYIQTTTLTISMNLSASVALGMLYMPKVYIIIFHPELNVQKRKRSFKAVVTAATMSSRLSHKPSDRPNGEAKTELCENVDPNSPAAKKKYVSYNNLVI

`COc1ccccc1-c1noc2cc(-c3ccccc3)n(C)c(=O)c12` [Production Example 8, 5-methyl-3-(2-methoxyphenyl)-6-phenylisoxazolo[4,5c]pyridin-4(5H)-one] yielded an IC50 of 7.65 nM.

For the molecule `Cn1c(-c2cccnc2)cc2onc(-c3ccncc3)c2c1=O` [Production Example 32, 5-methyl-6-pyridin-3-yl-3-pyridin-4-yl-isoxazolo[4,5-c]-pyridin-4(5H)-one], the IC50 came to 10.4 nM.
